{
  "source": "patent US20250041228A1",
  "about": "“ORAL FORMULATION OF A PYRIDINONE DERIVATE AND USE THEREOF IN PROPHYLAXIS AND/OR TREATMENT OF INTESTINAL FIBROSIS” (Dr. Falk Pharma GmbH, priority 2021, published 2025)",
  "origin": "cited, not measured here",
  "molecular_target": "T1, transglutaminase 2 (Homo sapiens, UniProt P21980)",
  "T1 sequence (P21980 1-687)": "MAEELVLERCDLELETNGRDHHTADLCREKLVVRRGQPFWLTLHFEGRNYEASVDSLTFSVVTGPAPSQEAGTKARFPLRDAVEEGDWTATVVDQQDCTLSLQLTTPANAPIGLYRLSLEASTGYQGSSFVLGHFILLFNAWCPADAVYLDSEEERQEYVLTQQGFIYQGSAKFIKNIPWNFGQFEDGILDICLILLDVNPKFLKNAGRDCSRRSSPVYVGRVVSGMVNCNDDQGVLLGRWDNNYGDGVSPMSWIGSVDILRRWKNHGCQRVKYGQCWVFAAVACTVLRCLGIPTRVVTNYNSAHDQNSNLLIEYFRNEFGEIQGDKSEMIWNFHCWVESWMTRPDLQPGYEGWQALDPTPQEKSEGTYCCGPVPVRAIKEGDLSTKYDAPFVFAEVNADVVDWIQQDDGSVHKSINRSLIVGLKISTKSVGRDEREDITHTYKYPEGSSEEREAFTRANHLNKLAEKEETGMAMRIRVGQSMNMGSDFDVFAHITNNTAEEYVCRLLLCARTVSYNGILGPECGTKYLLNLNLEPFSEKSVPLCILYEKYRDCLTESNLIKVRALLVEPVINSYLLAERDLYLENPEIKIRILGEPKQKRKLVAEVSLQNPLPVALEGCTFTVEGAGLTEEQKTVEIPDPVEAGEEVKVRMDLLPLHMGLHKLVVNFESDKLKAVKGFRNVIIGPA",
  "settings": "background statement, no data",
  "data": [
    {"smiles": "CCC(CC)CNC(=O)Cn1cccc(NC(=O)[C@H](CC/C=C/C(=O)OC)NC(=O)c2cncn2C)c1=O", "note": "[Compound 1, (S,E)-methyl-7-(1-(2-(2-ethylbutylamino)-2-oxoethyl)-2-oxo-1,2-dihydro-pyridin-3-ylamino)-6-(1-methyl-1H-imidazole-5-carboxamido)-7-oxohept-2-enoate]", "values": [
      {"measurement": "inhibitor against transglutaminase 2", "result": "effective inhibitor"}
    ]}
  ]
}
